This is an account of results in ChEMBL document CHEMBL4651402, “Screening of ~5500 FDA-approved drugs and clinical candidates for anti-SARS-CoV-2 activity” (2021).

This test relates to SARS-CoV-2. Description: microbe, parasite or virus in culture. As to conditions: Severe acute respiratory syndrome coronavirus 2, Vero C1008, 48 h.

With `CN[C@H](CC(C)C)C(=O)N[C@H]1C(=O)N[C@@H](CC(N)=O)C(=O)N[C@H]2C(=O)N[C@H]3C(=O)N[C@H](C(=O)N[C@H](C(=O)O)c4cc(O)cc(O)c4-c4cc3ccc4O)[C@H](O[C@H]3C[C@](C)(N)[C@@H](O)[C@H](C)O3)c3ccc(c(Cl)c3)Oc3cc2cc(c3O[C@@H]2O[C@H](CO)[C@@H](O)[C@H](O)[C@H]2O[C@H]2C[C@](C)(NCc3ccc(-c4ccc(Cl)cc4)cc3)[C@@H](O)[C@H](C)O2)Oc2ccc(cc2Cl)[C@H]1O` [ORITAVANCIN], the IC50 is above 20 µM. Moreover, the IC50 (read-out: pIC50 (converted)) is above 20 µM.

Molecule `Nc1nccc2c1ncn2C1OC(CO)C(O)C1O` (centres undefined) returned an IC50 above 20 µM. Further, the IC50 (read-out: pIC50 (converted)) is above 20 µM.

On to `O=C(O)c1ccccc1C(=O)Nc1ccc(S(=O)(=O)Nc2nccs2)cc1` [PHTHALYLSULFATHIAZOLE], for which the IC50 is above 20 µM. The IC50 (read-out: pIC50 (converted)) is above 20 µM.

As for `C[C@H](COC(=O)[C@@H](N)Cc1ccc(O)c(O)c1)OC(=O)c1ccccc1`, the IC50 is above 20 µM. The IC50 (read-out: pIC50 (converted)) is above 20 µM.

In the case of `CCOC(=O)CCC(=O)O[C@H]1[C@H](O[C@@H]2[C@@H](C)[C@H](O[C@H]3C[C@@](C)(OC)[C@@H](O)[C@H](C)O3)[C@@H](C)C(=O)O[C@H](CC)[C@@](C)(O)[C@H](O)[C@@H](C)C(=O)[C@H](C)C[C@@]2(C)O)O[C@H](C)C[C@@H]1N(C)C` [ERYTHROMYCIN ETHYLSUCCINATE], the IC50 is above 20 µM. Besides, under “read-out: pIC50 (converted)”, the IC50 is above 20 µM.

With `CN(C)CC[C@@H](c1ccc(Cl)cc1)c1ccccn1` [DEXCHLORPHENIRAMINE], the IC50 is above 20 µM. The IC50 (read-out: pIC50 (converted)) is above 20 µM.

Molecule `CC(C(O)c1ccccc1)N(C)C` (racemic) showed an IC50 above 20 µM. In addition, the IC50 (read-out: pIC50 (converted)) is above 20 µM.

As for `CSCC[C@H](N)C(=O)N[C@@]1(C(=O)O)CS(=O)(=O)[C@H]2[C@H](C(=O)O)[C@H]21` [POMAGLUMETAD METHIONIL ANHYDROUS], the IC50 is above 20 µM. In addition, for the setting “read-out: pIC50 (converted)”, the IC50 was above 20 µM.

`Cc1ccc(Nc2c(F)cccc2Cl)c(CC(=O)O)c1` [LUMIRACOXIB] yielded an IC50 above 20 µM. Besides, for the setting “read-out: pIC50 (converted)”, the IC50 was above 20 µM.

In the case of `C[C@@H]1NC(=O)C2(CCCC2)NC1=O`, the IC50 is above 20 µM. In addition, the IC50 (read-out: pIC50 (converted)) was above 20 µM.

In the case of `C=CC1=C(C(=O)O)N2C(=O)[C@@H](NC(=O)/C(=N\O)c3csc(N)n3)[C@H]2SC1`, the IC50 was above 20 µM. The IC50 (read-out: pIC50 (converted)) is above 20 µM.

Molecule `COc1ccnc(C[S+]([O-])c2nc3cc(-n4cccc4)ccc3[nH]2)c1C` (centres undefined) [ILAPRAZOLE] came in with an IC50 above 20 µM. The IC50 (read-out: pIC50 (converted)) is above 20 µM.

The molecule `CC(c1ccc(Cl)c(Cl)c1)N1N=C(N)CC1=O` (centres undefined) [MUZOLIMINE] returned an IC50 above 20 µM. The IC50 (read-out: pIC50 (converted)) is above 20 µM.

Molecule `Brc1c(NC2=NCCN2)ccc2nccnc12` [BRIMONIDINE] yielded an IC50 above 20 µM. In addition, the IC50 (read-out: pIC50 (converted)) is above 20 µM.

As for `O=c1c2ccccc2nc2n1CCCC2`, the IC50 was above 20 µM. In addition, the IC50 (read-out: pIC50 (converted)) was above 20 µM.

`O=C(O)/C=C/c1c[nH]cn1` yielded an IC50 above 20 µM. Besides, the IC50 (read-out: pIC50 (converted)) is above 20 µM.

As for `CCN(CC)CCNC(=O)COc1ccc(OC)cc1` [MEFEXAMIDE], the IC50 was above 20 µM. In addition, under “read-out: pIC50 (converted)”, the IC50 is above 20 µM.

In turn, `C#C[C@]1(OC(C)=O)CC[C@H]2[C@@H]3CCC4=C[C@@H](OC(C)=O)CC[C@@H]4[C@H]3CC[C@@]21C` [ETHYNODIOL DIACETATE] gave an IC50 above 20 µM. Besides, the IC50 (read-out: pIC50 (converted)) is above 20 µM.

`CCN(CC)CCOC(=O)C(Cc1cccc2ccccc12)CC1CCCO1` (centres undefined) [NAFRONYL] came in with an IC50 above 20 µM. Moreover, the IC50 (read-out: pIC50 (converted)) is above 20 µM.

As to `CC1=NC(=O)[C@](CCN(C(C)C)C(C)C)(c2ccccc2)[C@H]2CCCCN12`, the IC50 is above 20 µM. Also, for the setting “read-out: pIC50 (converted)”, the IC50 is above 20 µM.

Molecule `CN1C[C@H](C(=O)N[C@]2(C)O[C@@]3(O)[C@@H]4CCCN4C(=O)[C@H](Cc4ccccc4)N3C2=O)C[C@@H]2c3cccc4[nH]cc(c34)C[C@H]21` [DIHYDROERGOTAMINE] displayed an IC50 above 20 µM. Also, the IC50 (read-out: pIC50 (converted)) was above 20 µM.

With `CCC[C@H](c1ccc(C(=O)NCCC(=O)O)cc1)[C@@H](c1ccc(Cl)cc1)c1c[nH]c2c(F)cc(C)cc12`, the IC50 was above 20 µM. The IC50 (read-out: pIC50 (converted)) is above 20 µM.

Turning to `c1ccc(CN(CC2=NCCN2)c2ccccc2)cc1` [ANTAZOLINE], the IC50 was above 20 µM. The IC50 (read-out: pIC50 (converted)) is above 20 µM.

`CN1C(=O)C(O)N=C(c2ccccc2Cl)c2cc(Cl)ccc21` (centres undefined) [LORMETAZEPAM] returned an IC50 above 20 µM. Besides, the IC50 (read-out: pIC50 (converted)) is above 20 µM.

`Nc1nc(N)nc(NC2CC2)n1` [CYROMAZINE] gave an IC50 above 20 µM. Also, the IC50 (read-out: pIC50 (converted)) is above 20 µM.

Molecule `CCc1cn([C@H]2C[C@H](O)[C@@H](CO)O2)c(=O)[nH]c1=O` [EDOXUDINE] showed an IC50 above 100 µM. Moreover, under “read-out: pIC50 (converted)”, the IC50 was above 100 µM.

In the case of `O=P(O)(NCCCl)NCCCl` [PALIFOSFAMIDE], the IC50 is above 20 µM. Also, the IC50 (read-out: pIC50 (converted)) is above 20 µM.

In turn, `NC(=O)C1CC2(NC(=O)NC2=O)c2cc(F)ccc2O1` (centres undefined) yielded an IC50 above 20 µM. Besides, the IC50 (read-out: pIC50 (converted)) was above 20 µM.

On to `C/C=C/CC(C)C(O)C1C(=O)NC(CC)C(=O)N(C)CC(=O)N(C)C(C(C)CC)C(=O)NC(C(C)C)C(=O)N(C)C(CC(C)C)C(=O)NC(C)C(=O)NC(C)C(=O)N(C)C(CC(C)C)C(=O)N(C)C(CC(C)C)C(=O)N(C)C(C(C)C)C(=O)N1C` (centres undefined), for which the IC50 is above 20 µM. Also, the IC50 (read-out: pIC50 (converted)) was above 20 µM.

`CNCCc1ccc(OC(=O)C(C)C)c(OC(=O)C(C)C)c1` [IBOPAMINE] registered an IC50 above 20 µM. Also, the IC50 (read-out: pIC50 (converted)) is above 20 µM.

On to `O=S(=O)(O)NC1CCCCC1` [CYCLAMIC ACID], for which the IC50 is above 20 µM. For the same molecule, the IC50 (read-out: pIC50 (converted)) is above 20 µM.

Molecule `N[C@@]1(C(=O)O)CC[C@H]2[C@H](C(=O)O)[C@H]21` returned an IC50 above 20 µM. The IC50 (read-out: pIC50 (converted)) is above 20 µM.

In turn, `COc1ccc(C(C)=O)c(O)c1` [PAEONOL] had an IC50 above 20 µM. The IC50 (read-out: pIC50 (converted)) is above 20 µM.

The molecule `C=CCc1ccc(OC)cc1` [ESTRAGOLE] returned an IC50 above 20 µM. The IC50 (read-out: pIC50 (converted)) is above 20 µM.

For the molecule `CCCCCCCCCCCC1=C(O)C(=O)C=C(O)C1=O` [EMBELIN], the IC50 is above 20 µM. For the same molecule, under “read-out: pIC50 (converted)”, the IC50 was above 20 µM.

`CCOc1cc(N)c(Cl)cc1C(=O)NCC1CN(Cc2ccc(F)cc2)CCO1` (centres undefined) [MOSAPRIDE] displayed an IC50 above 20 µM. Besides, the IC50 (read-out: pIC50 (converted)) was above 20 µM.

In the case of `CCOC(=O)C1=C(C)NC(C)=C(C(=O)OC)C1c1cccc(Cl)c1Cl` (centres undefined) [FELODIPINE], the IC50 was above 20 µM. Further, the IC50 (read-out: pIC50 (converted)) is above 20 µM.

`Clc1ccc(C(OCCN2CCCCC2)c2ccccc2)cc1` (centres undefined) [CLOPERASTINE] registered an IC50 above 20 µM. For the same molecule, the IC50 (read-out: pIC50 (converted)) is above 20 µM.

`Cc1c(C(N)=O)cc([N+](=O)[O-])cc1[N+](=O)[O-]` [DINITOLMIDE] registered an IC50 above 20 µM. Moreover, the IC50 (read-out: pIC50 (converted)) was above 20 µM.

Molecule `c1ccc2[nH]c(-c3cscn3)nc2c1` [THIABENDAZOLE] had an IC50 above 20 µM. Further, the IC50 (read-out: pIC50 (converted)) was above 20 µM.

As for `CC12CCC3c4ccc(OC(=O)c5ccccc5)cc4CCC3C1CCC2O` (centres undefined), the IC50 is above 20 µM. The IC50 (read-out: pIC50 (converted)) is above 20 µM.

As for `Cc1cc2c(F)c(Oc3ncnn4cc(OC[C@@H](C)O)c(C)c34)ccc2[nH]1` [BRIVANIB], the IC50 was above 20 µM. The IC50 (read-out: pIC50 (converted)) was above 20 µM.
